Results: US7790400B2, “Delta-9-tetrahydrocannabinol detection method” (Concateno UK Limited, priority 2004, dated 2010)

Assays:
[1] = tested on: gold-labelled mouse monoclonal anti-THC antibody; test: Lateral flow immunochromatography test for cannabis, immobilised BSA-THC conjugate, spiked oral fluid, Cozart Rapiscan reader; conditions: lowest concentration in spiked drug-free oral fluid giving a positive signal on the reader
[2] = tested on: gold-labelled mouse monoclonal anti-THC antibody; test: Lateral flow immunochromatography test for cannabis, immobilised BSA-CAN (5-pentylresorcinol/BSA) conjugate, spiked oral fluid, Cozart Rapiscan reader; conditions: for Concentration giving positive Cozart Rapiscan Response: immobilised conjugate BSA-CAN, lowest concentration in spiked drug-free oral fluid giving a positive signal on the reader; for Detectable level by competitive immunoassay: 5-pentylresorcinol conjugate with commercial anti-THC antibody
[3] = tested on: antibodies raised to THC-COOH coupled to a carrier protein via the phenolic group at C1; conditions: relative to THC-COOH; commercially available assay; cited from earlier work
[4] = tested on: mouse monoclonal anti-THC antibody; test: Interference of free 5-pentylresorcinol with antibody binding to immobilised 5-pentylresorcinol-macromolecule conjugates; conditions: 5-pentylresorcinol in free solution

CCCCCc1cc(O)c2c(c1)OC(C)(C)[C@@H]1CCC(CO)=C[C@@H]21 [THC—OH, 11-hydroxy-delta-9-THC]
Concentration giving positive Cozart Rapiscan Response [1]: 200 ng/mL | Sensitivity of detection compared with the parent drug THC ([2]; 5-pentylresorcinol conjugate and anti-THC antibody combination): comparable sensitivity to the parent drug | Concentration giving positive Cozart Rapiscan Response [2]: 20 ng/mL

CCCCCc1cc(O)c2c(c1)OC(C)(C)[C@@H]1CCC(C)=C[C@@H]21 [THC, Delta-9-tetrahydrocannabinol]
Cross-reactivity [3]: 5% | Concentration giving positive Cozart Rapiscan Response [1]: 200 ng/mL | Detectable level by competitive immunoassay [2]: ≤ 20 ng/mL | Concentration giving positive Cozart Rapiscan Response [2]: 20 ng/mL | Increase of sensitivity of detection with BSA-CAN versus BSA-THC ([2]; lateral flow strips, BSA-CAN compared with BSA-THC): about 10 fold

CCCCCc1cc(O)cc(O)c1 [5-pentylresorcinol]
Interference with binding of anti-THC antibody to immobilised conjugate [4]: does not interfere

CCCCCc1cc(O)c2c(c1)OC(C)(C)[C@@H]1CCC(C(=O)O)=C[C@@H]21 [THC—COOH, 11-nor-9-carboxy-delta-9-THC]
Concentration giving positive Cozart Rapiscan Response [1]: 10 ng/mL | Detectable level by competitive immunoassay [2]: about 1.0 ng/ml | Concentration giving positive Cozart Rapiscan Response [2]: 1.0 ng/mL
